Results on nine compounds are retold here after patent publication US10323027B2, “2,3-dihydro-4H-1,3-benzoxazin-4-one derivatives as modulators of cholinergic muscarinic M1 receptor” (Takeda Pharmaceutical Company Limited, priority 2015, dated 2019).

Test [1] concerns Scopolamine-induced memory deficits models. The test is described as follows: Novel object recognition test (Experimental Example 4). The test is classed as in vivo, male Long-Evans rats. To be noted: scopolamine 0.1 mg/kg s.c., retention trial 4 hr after acquisition, mean±standard error. Here is the method: Novel Object Recognition Test Novel object recognition test is comprised of two trials called the acquisition and the retention trials. Scopolamine-induced memory deficits models were used for the test, and animals used were male Long-Evans rats. On the day before the test, for acclimation, the rats were allowed to freely move about the test box (40×40×50 cm) for 10 minutes. On the test day, the rats were acclimated to the test room for about 1 hr prior to the test. The test compounds were orally administered to the rats in a single dose a given time before the acquisition trial. For induction of learning and memory deficits, scopolamine (0.1 mg/kg) was subcutaneously administered into the rats 30 min before the acquisition trial. For the acquisition trial, two identical objects (A1, A2) were placed in the test box. The rats were put in the test box for 3 min, and the duration exploring each object was measured. The retention trial was performed 4 hr after the acquisition trial. For the retention trial, one familiar object (A3) used for the acquisition trial and one novel object (B) having a different shape from A3 were placed in the test box. After setting the objects, the rats were introduced into the test box and retention trial was performed for 3 min. The duration for exploring each object in the acquisition trial and the retention trial was measured, and the exploration rate of novel object was calculated. The exploration rate of novel object was expressed as (the duration exploring the novel object)/[(the duration exploring the novel object)+(the duration exploring the familiar object)]×100(%) at mean±standard error.

The test system of test [2] is Myo-Inositol 1 Phosphate (IP1). The test is described as follows: Measurement of myo-inositol 1 phosphate (IP1) in rat hippocampi after oral administration (Experimental Example 3). As to conditions: IP1 production (IP1/protein) in rat hippocampi; 10 mg/kg oral; relative to Vehicle administration group as 100%. The test is classed as in vivo, male Long-Evans rats. As for the experimental part:
Measurement of Myo-Inositol 1 Phosphate (IP1)
Animals used were male Long-Evans rats. They were used after acclimation for at least 1 week. Test compounds were suspended in 0.5% (w/v) aqueous methylcellulose solution, and the suspension was orally administered to the rats. After a given time, lithium chloride dissolved in saline was subcutaneously administered into the rats. After a given time, their bilateral hippocampi were isolated from the rats, and the wet weight thereof was measured. The isolated hippocampi were homogenized with HEPES (registered trademark) buffer, followed by centrifugation. The IP1 and protein concentrations in the supernatant were measured by IP-One HTRF assay kit (Cisbio Bioassays) and BCA protein assay kit (Thermo Scientific), respectively. The level of the IP1 production was expressed as the ratio of the concentration of IP1 to that of protein. The increase rate of the IP1 production was shown as a relative value when Vehicle administration group as 100%.

Test [3] concerns the target T1, human M1 receptor (hCHRM1) (Homo sapiens, UniProt P11229).
T1 construct: expressed in transfected cells
T1 sequence (P11229 1-460): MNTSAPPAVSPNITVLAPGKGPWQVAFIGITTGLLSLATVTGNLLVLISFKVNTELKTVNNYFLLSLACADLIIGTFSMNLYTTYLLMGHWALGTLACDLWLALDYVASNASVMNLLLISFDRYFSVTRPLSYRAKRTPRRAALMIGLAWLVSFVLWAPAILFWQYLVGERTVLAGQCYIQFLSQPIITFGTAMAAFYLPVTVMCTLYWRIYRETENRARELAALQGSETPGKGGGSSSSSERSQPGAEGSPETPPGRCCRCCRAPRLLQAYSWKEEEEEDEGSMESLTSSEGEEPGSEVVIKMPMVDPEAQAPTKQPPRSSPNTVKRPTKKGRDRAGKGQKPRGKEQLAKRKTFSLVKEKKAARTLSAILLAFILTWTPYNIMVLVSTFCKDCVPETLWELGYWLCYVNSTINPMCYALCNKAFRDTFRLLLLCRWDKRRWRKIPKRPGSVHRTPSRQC
The test is described as follows: Measurement of M1 receptor positive allosteric modulator (M1PAM) activity, Ca2+ fluorescence by FLIPRtetra (Experimental Example 1). The class given is cell-based. To be noted: for activity (%) at 10 μM: 10 μM test compound, 100% = acetylcholine 1 μM, 0% = DMSO; for EC50: inflection point of concentration-dependent curve, in presence of acetylcholine at EC20 (0.8-1.0 nM), CHO-K1 cells expressing hCHRM1, read-out: IP value. The essentials:
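CHO-K1 cells stably expressing hCHRM1, loaded with Fluo-4 AM (probenecid), received compound with acetylcholine at EC20 (final 0.8-1.0 nM); Ca2+ fluorescence read 1 min by FLIPRtetra. Activity scaled 0% (DMSO) to 100% (1 μM acetylcholine); IP from inflection point of concentration curve.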

Test [4] has as its target T1, human M1 receptor (hCHRM1). The test is described as follows: Measurement of M1 receptor positive allosteric modulator (M1PAM) activity, Ca2+ fluorescence by FDSS/μ cell (Experimental Example 2). The class given is cell-based. As to conditions: for activity (%) at 10 μM: 10 μM test compound, 100% = acetylcholine 1 μM, 0% = DMSO; for EC50: inflection point of concentration-dependent curve, in presence of acetylcholine at EC20 (0.8-1.0 nM), CHO-K1 cells expressing hCHRM1, read-out: IP value. Here is the method: Measurement of M1 Receptor Positive Allosteric Modulator (M1PAM) Activity
The activity of a test compound in the presence of acetylcholine at EC20 concentration (final concentration 0.8-1.0 nM), which affords an action corresponding to about 20% of the maximum activity, was measured as PAM activity. The method is as follows. CHO-K1 cells stably expressing a human M1 receptor (hCHRM1) were plated on a 384-well black clear bottom plate (BD Falcon) at 5,000 cells/well, and cultured in an incubator at 37° C., 5% CO2 for 1 day. The medium in the cell plate was removed, and a dye solution (prepared by adding Recording medium (DOJINDO LABORATORIES) to a final concentration of 1×concentration, Fluo-4 AM (DOJINDO LABORATORIES) to a final concentration of 2.5 μg/mL, Pluronic F127 (DOJINDO LABORATORIES) to a final concentration of 0.08%, and probenecid (DOJINDO LABORATORIES) to a final concentration of 1.25 mM to assay buffer (HBSS (Invitrogen), 20 mM HEPES (Invitrogen), 0.1% BSA (Wako Pure Chemical Industries, Ltd.))) was added at 30 μL/well. The cells were left standing in the incubator at 37° C., 5% CO2 for 30 min, and further left standing at room temperature for 30 min. A test compound prepared by diluting with assay buffer containing 3.2-4.0 nM acetylcholine was added at 10 μL/well, and the fluorescence was measured by FDSS/μ cell (Hamamatsu Photonics K.K.) for 1 min every 1 second. With the definition that the amount of change in the fluorescence on addition of acetylcholine (final concentration 1 μM) is 100% and that on addition of DMSO instead of a test compound is 0%, the activity (%) of the test compound was calculated, and the inflection point in the concentration-dependent curve of the test compound was calculated as IP values.

Structures can show the parent of a compound that is named as a salt.

In the case of `Cc1c(Cc2ccc(Cl)nc2)cc2c(c1Cl)OCN([C@H]1CCC[C@@H]1O)C2=O` [Example 24, 8-chloro-6-((6-chloropyridin-3-yl)methyl)-3-((1S,2S)-2-hydroxycyclopentyl)-7-methyl-2,3-dihydro-4H-1,3-benzoxazin-4-one], in test [1] (3 mg/kg oral), the “exploration rate of novel object (%)” value is 63.5±2.4%. Also, the “increase rate (%) at 10 mg/kg” value in test [2] was 26%. For the same compound, in test [3], the “activity (%) at 10 μM” value is 94% and the EC50 was found to be 3.1 nM.

Turning to `Cc1ccc(Cc2cc3c(cc2C)OCN([C@H]2CCCC[C@@H]2O)C3=O)cn1` (single isomer, unassigned) [Example 28, 3-(trans-2-hydroxycyclohexyl)-7-methyl-6-((6-methylpyridin-3-yl)methyl)-2,3-dihydro-4H-1,3-benzoxazin-4-one monohydrochloride (optical isomer)], the “increase rate (%) at 10 mg/kg” value in test [2] stood at 36%. Besides, in test [3], the “activity (%) at 10 μM” value came out at 108% and the EC50 turned out to be 20 nM.

Take `Cc1cc2c(cc1Cc1ccc(-c3ccn(C)n3)cc1)C(=O)N([C@H]1COCC[C@@H]1O)CO2` [Example 104, 3-((3S,4S)-4-hydroxytetrahydro-2H-pyran-3-yl)-7-methyl-6-(4-(1-methyl-1H-pyrazol-3-yl)benzyl)-2,3-dihydro-4H-1,3-benzoxazin-4-one]: the “exploration rate of novel object (%)” value in test [1] (3 mg/kg oral) was 61.6±2.2%. Moreover, in test [2], the “increase rate (%) at 10 mg/kg” value turned out to be 86%. In addition, in test [4], the “activity (%) at 10 μM” value is 99% and the EC50 was found to be 4.5 nM.

Consider `Cc1nn(C)cc1-c1ccc(Cc2cc3c(c(F)c2C)OCN([C@H]2CCC[C@@H]2O)C3=O)cn1` [Example 93, 6-((6-(1,3-dimethyl-1H-pyrazol-4-yl)pyridin-3-yl)methyl)-8-fluoro-3-((1S,2S)-2-hydroxycyclopentyl)-7-methyl-2,3-dihydro-4H-1,3-benzoxazin-4-one], for which, in test [4], the “activity (%) at 10 μM” value is reported as 103% and the EC50 stood at 4.6 nM.

`Cc1c(Cc2ccc(-n3cccn3)nc2)cc2c(c1Cl)OCN([C@H]1CCC[C@@H]1O)C2=O` (single isomer, unassigned) [Example 97, 8-chloro-3-(trans-2-hydroxycyclopentyl)-7-methyl-6-((6-(1H-pyrazol-1-yl)pyridin-3-yl)methyl)-2,3-dihydro-4H-1,3-benzoxazin-4-one (optical isomer: longer retention time)]: the “activity (%) at 10 μM” value in test [4] was found to be 99%.

Regarding `C=Cc1ccc(Cc2cc3c(c(C)c2C)OCN([C@H]2COCC[C@@H]2O)C3=O)cn1` [Example 110, 1,5-anhydro-2,4-dideoxy-2-(7,8-dimethyl-4-oxo-6-((6-vinylpyridine-3-yl)methyl)-2H-1,3-benzoxazin-3(4H)-yl)-L-threo-pentitol], in test [4], the “activity (%) at 10 μM” value is on record as 99% and the EC50 came to 4.8 nM.

`Cc1c(Cc2ccc(-n3cccn3)nc2)cc2c(c1F)OCN([C@H]1CCC[C@@H]1O)C2=O` [Example 13, 8-fluoro-3-((1S,2S)-2-hydroxycyclopentyl)-7-methyl-6-((6-(1H-pyrazol-1-yl)pyridin-3-yl)methyl)-2,3-dihydro-4H-1,3-benzoxazin-4-one]: the “exploration rate of novel object (%)” value in test [1] (1 mg/kg oral) came to 60.2±3.0%. Further, the “increase rate (%) at 10 mg/kg” value in test [2] is on record as 102%. Also, in test [3], the “activity (%) at 10 μM” value worked out at 88% and the EC50 turned out to be 6 nM.

`Cc1c(Cc2ccc(-c3ccnc(F)c3)nc2)cc2c(c1F)OCN([C@H]1CCC[C@@H]1O)C2=O` [Example 89, 8-fluoro-6-((2′-fluoro-2,4′-bipyridin-5-yl)methyl)-3-((1S,2S)-2-hydroxycyclopentyl)-7-methyl-2,3-dihydro-4H-1,3-benzoxazin-4-one]: in test [4], the “activity (%) at 10 μM” value is 102% and the EC50 turned out to be 12 nM.

Take `Cc1c(Cc2ccc(-c3ccn(C)n3)nc2)cc2c(c1Cl)OCN([C@H]1CCC[C@@H]1O)C2=O` [Example 99, 8-chloro-3-((1S,2S)-2-hydroxycyclopentyl)-7-methyl-6-((6-(1-methyl-1H-pyrazol-3-yl)pyridin-3-yl)methyl)-2,3-dihydro-4H-1,3-benzoxazin-4-one]: in test [4], the “activity (%) at 10 μM” value was determined as 97% and the EC50 came out at 2.9 nM.
